In patent US7342027B2 (Yuhan Corporation, priority 2002, dated 2008):
Counter-ions that a name gives are not always drawn.

These molecules were tested against T1, Recombinant human cathepsin K (Homo sapiens, UniProt P43235) (assay: Inhibition of cathepsin K activity (Z-Phe-Arg-AMC fluorescence assay)). Settings: 25 uM Z-Phe-Arg-AMC, pH 5.5, 1 hour at 37° C.
T1 construct: made in house
T1 sequence (P43235 115-329): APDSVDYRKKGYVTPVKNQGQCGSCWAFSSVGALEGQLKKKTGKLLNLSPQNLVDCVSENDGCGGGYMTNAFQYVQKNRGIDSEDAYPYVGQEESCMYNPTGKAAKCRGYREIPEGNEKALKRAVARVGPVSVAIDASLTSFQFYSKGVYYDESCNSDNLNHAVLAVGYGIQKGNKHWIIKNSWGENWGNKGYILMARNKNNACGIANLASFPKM
Assay type: biochemical
Procedure: Test 1: Inhibition of Cathepsin K Activity
Recombinant human cathepsin K was prepared in accordance with Biol, Pharm. Bull, 19(8), 1026-1031 (1996) and J. Biol. Chem. 271, 2126-2132 (1996). Stock solutions of 2.5 mM Z-Phe-Arg-AMC (BACHEM, 1-1160) and all inhibitors were prepared in dimethyl sulfoxide. In vitro assays for cathepsin K were conducted with 25 uM Z-Phe-Arg-AMC as a substrate at pH 5.5 in 100 mM Na acetate buffer containing 20 mM cysteine and 5 mM EDTA in the presence of 2% final concentration of DMSO. Reaction was initiated by the addition of enzyme to samples, which were then incubated for 1 hour at 37° C. The fluorescence was monitored at 460 nm (excitation wavelength 360 nm) using fluorescence plate reader.
The concentrations of the test compounds, which inhibit 50% of cathepsin K activity, are represented as IC50 in Table 1.

Structure (SMILES)	IC50 [nM]
CC1(C)CN(c2cc(F)ccc2N2CCC(NC(=O)C3(NC(=O)c4ccco4)CCCCC3)C(=O)C2)C1=O (stereo not shown) [Example 92, 4-[N-[1-[N-(furan-2-ylcarbonyl)amino]cyclohexanecarbonyl]amino]-1-[4-fluoro-2-(3,3-dimethylazetidin-2-one-1-yl)phenyl]piperidin-3-one]	1.45
O=C(NC1(C(=O)NC2CCN(c3ccc(F)cc3N3CCCC3=O)CC2=O)CCCCC1)c1ccco1 (stereo not shown) [Example 95, 4-[N-[1-[N-(furan-2-ylcarbonyl)amino]cyclohexanecarbonyl]amino]-1-[4-fluoro-2-(pyrrolidin-2-one-1-yl)phenyl]piperidin-3-one]	10.8
O=C(NC1(C(=O)NC2CCN(c3ccc(F)cc3-n3cccc3)CC2=O)CCCCC1)c1ccco1 (stereo not shown) [Example 99, 4-[N-[1-[N-(furan-2-ylcarbonyl)amino]cyclohexanecarbonyl]amino]-1-[4-fluoro-2-(pyrrol-1-yl)phenyl]piperidin-3-one]	4.41
Cc1cc(C(=O)NC2(C(=O)NC3CCN(c4ccccc4S(C)(=O)=O)CC3=O)CCCCC2)no1 (stereo not shown) [Example 106, 4-[N-[1-[N-(5-methyl-isoxazol-3-ylcarbonyl)amino]cyclohexanecarbonyl]amino]-1-(2-methanesulfonylphenyl)piperidin-3-one]	19.9
CCS(=O)(=O)c1ccccc1N1CCC(NC(=O)C2(NC(=O)c3cc(C)on3)CCCCC2)C(=O)C1 (stereo not shown) [Example 107, 4-[N-[1-[N-(5-methyl-isoxazol-3-ylcarbonyl)amino]cyclohexanecarbonyl]amino]-1-(2-ethanesulfonylphenyl)piperidin-3-one]	8.07
Cc1occc1C(=O)NC1(C(=O)NC2CCN(c3ccccc3S(C)(=O)=O)CC2=O)CCCCC1 (stereo not shown) [Example 122, 4-[N-[1-[N-(2-methyl-furan-3-ylcarbonyl)amino]cyclohexanecarbonyl]amino]-1-(2-methanesulfonylphenyl)piperidin-3-one]	3.87
Cc1cc(C(=O)NC2(C(=O)NC3CCN(c4ccccc4S(C)(=O)=O)CC3=O)CCCCC2)oc1C (stereo not shown) [Example 125, 4-[N-[1-[N-(4,5-dimethyl-furan-2-ylcarbonyl)amino]cyclohexanecarbonyl]amino]-1-(2-methanesulfonylphenyl)piperidin-3-one]	6.8
CC(C)(C)OC(=O)c1ccccc1N1CCC(NC(=O)C2(NC(=O)c3cc4ccccc4s3)CCCCC2)C(=O)C1 (stereo not shown) [Example 129, 4-[N-[1-[N-(benzothiophen-2-ylcarbonyl)amino]cyclohexanecarbonyl]amino]-1-(2-tert-butoxycarbonylphenyl)piperidin-3-one]	0.45
CS(=O)(=O)c1ccccc1N1CCC(NC(=O)C2(NC(=O)c3ccc(-c4ccccc4)cc3)CCCCC2)C(=O)C1 (stereo not shown) [Example 153, 4-[N-[1-[N-(4-biphenylcarbonyl)amino]cyclohexanecarbonyl]amino]-1-(2-methanesulfonylphenyl)piperidin-3-one]	0.36
CS(=O)(=O)c1ccccc1N1CCC(NC(=O)C2(NC(=O)c3ccc(OCCN4CCOCC4)cc3)CCCCC2)C(=O)C1 (stereo not shown) [Example 155, 4-[N-[1-[N-(4-(2-morpholinethoxy)benzoyl)amino]cyclohexanecarbonyl]amino]-1-(2-methanesulfonylphenyl)piperidin-3-one]	1.29
CS(=O)(=O)c1ccccc1N1CCC(NC(=O)C2(NC(=O)c3ccc(OCCN4CCCC4)cc3)CCCCC2)C(=O)C1 (stereo not shown) [Example 156, 4-[N-[1-[N-(4-(2-pyrrolidinethoxy)benzoyl)amino]cyclohexanecarbonyl]amino]-1-(2-methanesulfonylphenyl)piperidin-3-one]	1.9
CS(=O)(=O)c1ccccc1N1CCC(NC(=O)C2(NC(=O)c3ccc(OCCN4CCOCC4)cc3)CCCCC2)C(=O)C1 (stereo not shown) [Example 158, 4-[N-[1-[N-(4-(2-morpholinethoxy)benzoyl)amino]cyclohexanecarbonyl]amino]-1-(2-methanesulfonylphenyl)piperidin-3-one hydrochloride]	3.15
CS(=O)(=O)c1ccccc1N1CCC(NC(=O)C2(NC(=O)c3ccc(OCCN4CCCC4)cc3)CCCCC2)C(=O)C1 (stereo not shown) [Example 159, 4-[N-[1-[N-(4-(2-pyrrolidinethoxy)benzoyl)amino]cyclohexanecarbonyl]amino]-1-(2-methanesulfonylphenyl)piperidin-3-one hydrochloride]	3.25
CS(=O)(=O)c1ccccc1N1CCC(NC(=O)C2(NC(=O)c3ccc(OCCN4CCCCC4)cc3)CCCCC2)C(=O)C1 (stereo not shown) [Example 160, 4-[N-[1-[N-(4-(2-piperidinethoxy)benzoyl)amino]cyclohexanecarbonyl]amino]-1-(2-methanesulfonylphenyl)piperidin-3-one hydrochloride]	3.14

Next, values leading:

IC50 [nM]	Structure (SMILES)
10.4	CSc1cc(F)ccc1N1CCC(NC(=O)C2(NC(=O)c3ccco3)CCCCC2)C(=O)C1 (stereo not shown) [Example 85, 4-[N-[1-[N-(furan-2-ylcarbonyl)amino]cyclohexanecarbonyl]amino]-1-(4-fluoro-2-thiomethoxyphenyl)piperidin-3-one]
1.93	CS(=O)(=O)c1ccccc1N1CCC(NC(=O)C2(NC(=O)c3ccc(Cl)s3)CCCCC2)C(=O)C1 (stereo not shown) [Example 114, 4-[N-[1-[N-(5-chloro-thiophen-2-ylcarbonyl)amino]cyclohexanecarbonyl]amino]-1-(2-methanesulfonylphenyl)piperidin-3-one]
2.35	CC(C)S(=O)(=O)c1ccccc1N1CCC(NC(=O)C2(NC(=O)c3ccc(Cl)s3)CCCCC2)C(=O)C1 (stereo not shown) [Example 116, 4-[N-[1-[N-(5-chloro-thiophen-2-ylcarbonyl)amino]cyclohexanecarbonyl]amino]-1-(2-isopropanesulfonylphenyl)piperidin-3-one]
2.13	CS(=O)(=O)c1ccc(F)cc1N1CCC(NC(=O)C2(NC(=O)c3ccc(Cl)s3)CCCCC2)C(=O)C1 (stereo not shown) [Example 117, 4-[N-[1-[N-(5-chloro-thiophen-2-ylcarbonyl)amino]cyclohexanecarbonyl]amino]-1-(5-fluoro-2-methanesulfonylphenyl)piperidin-3-one]
7.73	Cc1ccsc1C(=O)NC1(C(=O)NC2CCN(c3ccccc3S(C)(=O)=O)CC2=O)CCCCC1 (stereo not shown) [Example 121, 4-[N-[1-[N-(3-methyl-thiophen-2-ylcarbonyl)amino]cyclohexanecarbonyl]amino]-1-(2-methanesulfonylphenyl)piperidin-3-one]
4.97	Cc1ccc(C(=O)NC2(C(=O)NC3CCN(c4ccccc4S(C)(=O)=O)CC3=O)CCCCC2)o1 (stereo not shown) [Example 123, 4-[N-[1-[N-(5-methyl-furan-2-ylcarbonyl)amino]cyclohexanecarbonyl]amino]-1-(2-methanesulfonylphenyl)piperidin-3-one]
0.67	CS(=O)(=O)c1ccccc1N1CCC(NC(=O)C2(NC(=O)c3cc4ccccc4s3)CCCCC2)C(=O)C1 (stereo not shown) [Example 128, 4-[N-[1-[N-(benzothiophen-2-ylcarbonyl)amino]cyclohexanecarbonyl]amino]-1-(2-methanesulfonylphenyl)piperidin-3-one]
1.2	O=C(NC1(C(=O)NC2CCN(c3cc(C(F)(F)F)ccc3Cl)CC2=O)CCCCC1)c1cc2ccccc2s1 (stereo not shown) [Example 130, 4-[N-[1-[N-(benzothiophen-2-ylcarbonyl)amino]cyclohexanecarbonyl]amino]-1-(2-chloro-5-trifluoromethylphenyl)piperidin-3-one]
4.11	O=C(NC1(C(=O)NC2CCN(c3ccc(Cl)cc3F)CC2=O)CCCCC1)c1cc2ccccc2s1 (stereo not shown) [Example 131, 4-[N-[1-[N-(benzothiophen-2-ylcarbonyl)amino]cyclohexanecarbonyl]amino]-1-(4-chloro-2-fluoro-phenyl)piperidin-3-one]
1.22	Cc1c(C(=O)NC2(C(=O)NC3CCN(c4ccccc4S(C)(=O)=O)CC3=O)CCCCC2)oc2ccccc12 (stereo not shown) [Example 133, 4-[N-[1-[N-(3-methyl-benzofuran-2-ylcarbonyl)amino]cyclohexanecarbonyl]amino]-1-(2-methanesulfonylphenyl)piperidin-3-one]
6.09	Cc1c(C(=O)NC2(C(=O)NC3CCN(c4cc(F)ccc4C(F)(F)F)CC3=O)CCCCC2)oc2ccccc12 (stereo not shown) [Example 134, 4-[N-[1-[N-(3-methyl-benzofuran-2-ylcarbonyl)amino]cyclohexanecarbonyl]amino]-1-(5-fluoro-2-trifluoromethylphenyl)piperidin-3-one]
1.62	CS(=O)(=O)c1ccccc1N1CCC(NC(=O)C2(NC(=O)c3ccc4ccccc4n3)CCCCC2)C(=O)C1 (stereo not shown) [Example 136, 4-[N-[1-[N-(quinolin-2-ylcarbonyl)amino]cyclohexanecarbonyl]amino]-1-(2-methanesulfonylphenyl)piperidin-3-one]
4.82	O=C(NC1(C(=O)NC2CCN(c3ccccc3[N+](=O)[O-])CC2=O)CCCCC1)c1ccc2ccccc2n1 (stereo not shown) [Example 138, 4-[N-[1-[N-(quinolin-2-ylcarbonyl)amino]cyclohexanecarbonyl]amino]-1-(2-nitrophenyl)piperidin-3-one]
1.37	CS(=O)(=O)c1ccccc1N1CCC(NC(=O)C2(NC(=O)c3ccc(C(F)(F)F)cc3)CCCCC2)C(=O)C1 (stereo not shown) [Example 154, 4-[N-[1-[N-(4-trifluoromethylbenzoyl)amino]cyclohexanecarbonyl]amino]-1-(2-methanesulfonylphenyl)piperidin-3-one]
